Reference: patent US12686673B2 (Blueprint Medicines Corporation, priority 2020, dated 2026)
Read-outs that look alike come from different tables or passages of the source.

Key:
Type in all cases: cell-based
[1] = molecular target: EGFR(D770_N771insSVD) expressing Ba/F3 stable cell line (Homo sapiens, UniProt P00533, DUP768-770, cells depend on it); test: Cellular proliferation (Alamar Blue) assay, EGFR D770_N771insSVD Ba/F3; settings: 72 hr, read-out: D770 IC50
Summary of the method: (§1)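 Seventy-two-hour compound exposure (3-fold series, final 10–0.0005 μM) of mutant EGFR/HER2 Ba/F3 cells plated at 15,000/well in RPMI with 10% FBS. Alamar Blue added for 3 h at 37 °C as proliferation read-out.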

A431 cells = test: Cellular proliferation (Alamar Blue) assay, A431
[2] = molecular target: HER2 (A775_G776insYVMA) expressing Ba/F3 stable cell line (Homo sapiens, UniProt P04626, DUP772-775, cells depend on it); test: Cellular proliferation (Alamar Blue) assay, HER2 A775_G776insYVMA Ba/F3; settings: 72 hr, read-out: YVMA IC50
HER2 (A775_G776insYVMA) expressing Ba/F3 stable cell line, sequence (P04626 with tags, fused parts or gaps DUP772-775): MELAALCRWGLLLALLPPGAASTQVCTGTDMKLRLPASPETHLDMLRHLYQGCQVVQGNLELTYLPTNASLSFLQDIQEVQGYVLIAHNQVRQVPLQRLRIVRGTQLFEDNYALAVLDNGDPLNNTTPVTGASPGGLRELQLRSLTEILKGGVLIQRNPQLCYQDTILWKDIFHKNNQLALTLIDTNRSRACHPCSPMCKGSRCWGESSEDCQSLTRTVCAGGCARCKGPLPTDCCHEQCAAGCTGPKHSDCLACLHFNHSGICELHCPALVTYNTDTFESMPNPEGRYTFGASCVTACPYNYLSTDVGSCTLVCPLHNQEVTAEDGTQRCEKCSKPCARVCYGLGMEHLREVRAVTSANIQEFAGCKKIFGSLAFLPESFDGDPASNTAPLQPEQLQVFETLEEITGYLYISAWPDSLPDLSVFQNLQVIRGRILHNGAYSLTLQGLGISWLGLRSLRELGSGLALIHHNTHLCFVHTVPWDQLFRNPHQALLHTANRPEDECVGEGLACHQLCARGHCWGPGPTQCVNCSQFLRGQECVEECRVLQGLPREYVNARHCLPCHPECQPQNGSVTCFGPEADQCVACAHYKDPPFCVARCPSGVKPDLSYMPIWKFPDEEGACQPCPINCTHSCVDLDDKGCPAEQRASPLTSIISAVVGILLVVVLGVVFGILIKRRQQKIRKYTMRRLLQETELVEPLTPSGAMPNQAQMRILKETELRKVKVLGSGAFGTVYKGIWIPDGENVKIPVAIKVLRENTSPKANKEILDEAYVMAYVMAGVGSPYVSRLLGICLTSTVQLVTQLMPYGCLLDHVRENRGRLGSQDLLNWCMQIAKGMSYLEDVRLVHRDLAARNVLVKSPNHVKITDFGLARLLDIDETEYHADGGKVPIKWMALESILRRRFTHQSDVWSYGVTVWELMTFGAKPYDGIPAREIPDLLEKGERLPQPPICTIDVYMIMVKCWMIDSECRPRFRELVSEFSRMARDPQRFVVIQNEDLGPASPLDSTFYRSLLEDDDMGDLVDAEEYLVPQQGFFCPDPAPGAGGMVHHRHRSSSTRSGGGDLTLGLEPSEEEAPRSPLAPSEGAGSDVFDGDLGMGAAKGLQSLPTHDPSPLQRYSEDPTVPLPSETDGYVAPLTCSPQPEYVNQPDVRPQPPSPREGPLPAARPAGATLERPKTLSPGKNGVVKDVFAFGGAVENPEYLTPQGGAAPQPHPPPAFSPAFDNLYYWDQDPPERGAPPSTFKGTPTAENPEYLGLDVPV
Summary of the method: as §1

[3] = molecular target: EGFR (A767_dupASV) expressing Ba/F3 stable cell line (Homo sapiens, UniProt P00533, DUP767-769, cells depend on it); test: Cellular proliferation (Alamar Blue) assay, EGFR A767_dupASV Ba/F3; settings: 72 hr, read-out: A767 IC50
EGFR (A767_dupASV) expressing Ba/F3 stable cell line, sequence (P00533 with tags, fused parts or gaps DUP767-769): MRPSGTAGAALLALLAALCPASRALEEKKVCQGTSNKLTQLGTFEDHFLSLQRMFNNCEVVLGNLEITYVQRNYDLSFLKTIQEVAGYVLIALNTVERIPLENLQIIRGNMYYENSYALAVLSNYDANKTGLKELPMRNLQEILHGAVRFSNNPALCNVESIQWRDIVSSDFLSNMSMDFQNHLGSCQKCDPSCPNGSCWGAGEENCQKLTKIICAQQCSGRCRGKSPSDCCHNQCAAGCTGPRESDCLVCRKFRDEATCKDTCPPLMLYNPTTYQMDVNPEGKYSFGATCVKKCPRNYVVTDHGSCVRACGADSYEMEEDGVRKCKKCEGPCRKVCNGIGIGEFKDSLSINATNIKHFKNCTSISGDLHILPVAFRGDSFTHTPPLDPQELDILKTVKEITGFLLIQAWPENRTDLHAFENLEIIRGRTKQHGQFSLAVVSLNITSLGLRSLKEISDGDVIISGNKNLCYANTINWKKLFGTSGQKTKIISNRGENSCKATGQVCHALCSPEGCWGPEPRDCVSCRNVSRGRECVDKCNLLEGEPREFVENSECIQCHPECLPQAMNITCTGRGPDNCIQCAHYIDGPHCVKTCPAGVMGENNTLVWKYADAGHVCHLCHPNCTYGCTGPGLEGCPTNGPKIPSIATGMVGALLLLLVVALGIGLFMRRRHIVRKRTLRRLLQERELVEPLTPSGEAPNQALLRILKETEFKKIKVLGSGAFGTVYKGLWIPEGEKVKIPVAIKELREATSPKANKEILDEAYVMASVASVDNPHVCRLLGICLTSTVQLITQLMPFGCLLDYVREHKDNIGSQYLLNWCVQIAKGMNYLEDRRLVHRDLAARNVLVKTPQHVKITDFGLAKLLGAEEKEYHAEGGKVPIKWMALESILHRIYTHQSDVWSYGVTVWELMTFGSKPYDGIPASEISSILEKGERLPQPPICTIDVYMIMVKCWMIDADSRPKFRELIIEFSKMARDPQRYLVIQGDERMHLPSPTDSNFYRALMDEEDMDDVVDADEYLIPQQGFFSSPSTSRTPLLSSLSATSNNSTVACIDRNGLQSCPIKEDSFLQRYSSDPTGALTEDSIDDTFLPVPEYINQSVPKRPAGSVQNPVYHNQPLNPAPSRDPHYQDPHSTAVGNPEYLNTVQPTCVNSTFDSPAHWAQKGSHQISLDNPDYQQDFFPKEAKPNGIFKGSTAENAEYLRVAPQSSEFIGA
Summary of the method: as §1

[4] = Homo sapiens, A-431; A431 cells, Alamar Blue, 72 hr; read-out: A431 IC50
[5] = Homo sapiens, A-431; A431 cells, 72 hr, Alamar Blue; read-out: A431 IC50

EGFR(D770_N771insSVD) expressing Ba/F3 stable cell line, sequence (P00533 with tags, fused parts or gaps DUP768-770): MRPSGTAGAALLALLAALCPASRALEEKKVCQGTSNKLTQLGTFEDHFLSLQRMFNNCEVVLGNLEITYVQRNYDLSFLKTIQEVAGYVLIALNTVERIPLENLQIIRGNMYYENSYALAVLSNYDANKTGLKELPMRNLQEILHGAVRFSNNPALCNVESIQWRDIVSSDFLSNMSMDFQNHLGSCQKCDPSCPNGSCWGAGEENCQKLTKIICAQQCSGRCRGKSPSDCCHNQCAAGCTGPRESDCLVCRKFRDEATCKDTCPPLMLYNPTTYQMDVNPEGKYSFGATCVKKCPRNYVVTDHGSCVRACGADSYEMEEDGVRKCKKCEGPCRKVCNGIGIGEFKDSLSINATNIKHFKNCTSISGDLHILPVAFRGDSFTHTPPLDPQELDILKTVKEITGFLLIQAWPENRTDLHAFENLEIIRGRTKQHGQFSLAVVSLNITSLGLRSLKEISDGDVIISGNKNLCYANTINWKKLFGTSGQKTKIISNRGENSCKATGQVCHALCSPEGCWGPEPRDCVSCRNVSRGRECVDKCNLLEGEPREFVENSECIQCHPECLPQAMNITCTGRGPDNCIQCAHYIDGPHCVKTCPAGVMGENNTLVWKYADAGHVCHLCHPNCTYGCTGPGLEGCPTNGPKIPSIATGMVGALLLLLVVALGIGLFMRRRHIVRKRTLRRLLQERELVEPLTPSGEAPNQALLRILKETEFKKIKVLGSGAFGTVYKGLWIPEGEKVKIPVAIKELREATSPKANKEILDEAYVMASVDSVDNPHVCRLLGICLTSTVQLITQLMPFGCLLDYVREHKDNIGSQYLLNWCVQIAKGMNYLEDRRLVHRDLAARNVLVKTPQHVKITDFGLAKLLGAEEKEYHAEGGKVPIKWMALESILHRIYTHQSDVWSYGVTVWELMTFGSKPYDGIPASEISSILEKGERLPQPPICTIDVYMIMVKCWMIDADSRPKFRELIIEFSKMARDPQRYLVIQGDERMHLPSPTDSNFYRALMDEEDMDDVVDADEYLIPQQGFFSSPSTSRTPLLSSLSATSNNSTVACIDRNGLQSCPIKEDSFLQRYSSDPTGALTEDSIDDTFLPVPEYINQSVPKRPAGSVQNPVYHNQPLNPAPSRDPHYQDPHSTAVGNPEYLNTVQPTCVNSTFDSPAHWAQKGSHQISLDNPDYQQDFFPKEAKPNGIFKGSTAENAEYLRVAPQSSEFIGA

C=CC(=O)Nc1ccc(F)c(Nc2nc(Nc3ccnn3C)ncc2Cl)c1 [Compound 31, N-(3-((5-chloro-2-((1-methyl-1H-pyrazol-5-yl)amino)pyrimidin-4-yl)amino)-4-fluorophenyl)acrylamide]
GI50 [1]: 9960 nM | IC50 (A431 cells; [4]): 9800 nM | GI50 [2]: 5180 nM | GI50 [3]: 9870 nM

C=CC(=O)Nc1ccc(F)c(Nc2nc(Nc3cnn(C)c3)ncc2-c2ccc3ncnn3c2)c1 [Compound 279, N-(3-((5-([1,2,4]triazolo[1,5-a]pyridin-6-yl)-2-((1-methyl-1H-pyrazol-4-yl)amino)pyrimidin-4-yl)amino)-4-fluorophenyl)acrylamide]
GI50 [1]: 149 nM | IC50 (A431 cells; [5]): 93 nM | GI50 [2]: 471 nM | GI50 [3]: 328 nM

C=CC(=O)Nc1ccc(F)c(Nc2nc(Nc3cnn(C)c3)ncc2C#CC2CC2)c1 [Compound 244, N-(3-{[5-(2-cyclopropylethynyl)-2-[(1-methyl-1H-pyrazol-4-yl)amino]pyrimidin-4-yl]amino}-4-fluorophenyl)prop-2-enamide]
GI50 [1]: 1890 nM | IC50 (A431 cells; [5]): 1810 nM | GI50 [2]: 2250 nM | GI50 [3]: 2180 nM

C=CC(=O)Nc1ccc(F)c(Nc2cc(Nc3cnn(C)c3)ncc2-c2ccc(C(F)(F)F)cc2)c1 [Compound 210, N-[4-fluoro-3-({2-[(1-methyl-1H-pyrazol-4-yl)amino]-5-[4-(trifluoromethyl)phenyl]pyridin-4-yl}amino)phenyl]prop-2-enamide]
GI50 [1]: 2840 nM | IC50 (A431 cells; [5]): 4480 nM | GI50 [2]: 3580 nM | GI50 [3]: 2900 nM

C=CC(=O)Nc1ccc(F)c(Nc2nc(Nc3cn(C)nc3Cl)ncc2-c2ccc(C(F)(F)F)cc2)c1 [Compound 245, N-[3-({2-[(3-chloro-1-methyl-1H-pyrazol-4-yl)amino]-5-[4-(trifluoromethyl)phenyl]pyrimidin-4-yl}amino)-4-fluorophenyl]prop-2-enamide]
GI50 [1]: 91 nM | IC50 (A431 cells; [5]): 63 nM | GI50 [2]: 202 nM | GI50 [3]: 115 nM

C=CC(=O)Nc1cccc(Nc2nc(Nc3cnn(C)c3)nnc2Cl)c1 [Compound 156, N-(3-((6-chloro-3-((1-methyl-1H-pyrazol-4-yl)amino)-1,2,4-triazin-5-yl)amino)phenyl)acrylamide]
GI50 [1]: 1890 nM | IC50 (A431 cells; [4]): 8020 nM | GI50 [2]: 1520 nM | GI50 [3]: 2440 nM

C=CC(=O)Nc1ccc(F)c(Nc2nc(Nc3cnn(C)c3)ncc2-c2ccc3[nH]ccc3c2)c1 [Compound 97, N-(4-fluoro-3-{[5-(1H-indol-5-yl)-2-[(1-methyl-1H-pyrazol-4-yl)amino]pyrimidin-4-yl]amino}phenyl)prop-2-enamide]
GI50 [1]: 546 nM | IC50 (A431 cells; [4]): 586 nM | GI50 [2]: 403 nM | GI50 [3]: 862 nM

C=CC(=O)Nc1ccc(F)c(Nc2nc(Nc3cnn(C)c3)ncc2-c2ccc(C(F)(F)C(F)(F)F)cc2)c1 [Compound 296, N-(4-fluoro-3-((2-((1-methyl-1H-pyrazol-4-yl)amino)-5-(4-(perfluoroethyl)phenyl)pyrimidin-4-yl)amino)phenyl)acrylamide]
GI50 [1]: 84 nM | IC50 (A431 cells; [5]): 32 nM | GI50 [2]: 971 nM | GI50 [3]: 106 nM

[2H]C([2H])=CC(=O)Nc1ccc(F)c(Nc2nc(Nc3cnn(C)c3)ncc2-c2ccc(Br)cc2)c1 [Compound 250, N-(3-((5-(4-bromophenyl)-2-((1-methyl-1H-pyrazol-4-yl)amino)pyrimidin-4-yl)amino)-4-fluorophenyl)acrylamide-3,3-d2]
GI50 [1]: 34 nM | IC50 (A431 cells; [5]): 65 nM | GI50 [2]: 204 nM | GI50 [3]: 47 nM

Cn1cc(Nc2ncc(Cl)c(Nc3cc(NC(=O)/C=C/CF)ccc3F)n2)cn1 [Compound 7, (E)-N-(3-((5-chloro-2-((1-methyl-1H-pyrazol-4-yl)amino)pyrimidin-4-yl)amino)-4-fluorophenyl)-4-fluorobut-2-enamide]
GI50 [1]: 3270 nM | IC50 (A431 cells; [4]): 8730 nM | GI50 [2]: 3220 nM | GI50 [3]: 995 nM
